Results taken from the NIST ThermoML archive (doi:10.1021/je034213q).
± gives the expanded uncertainty stated by the source.

Conditions: Gas

## FC(F)C(F)(F)F [pentafluoroethane]
277.16 K, 20.94 kPa
  speed of sound: 144.94 ± 0.2 m/s
277.16 K, 40.92 kPa
  speed of sound: 144.49 ± 0.2 m/s
277.16 K, 60.65 kPa
  speed of sound: 144.05 ± 0.2 m/s
277.16 K, 80.97 kPa
  speed of sound: 143.59 ± 0.2 m/s
277.16 K, 101.09 kPa
  speed of sound: 143.13 ± 0.2 m/s
277.16 K, 121.01 kPa
  speed of sound: 142.67 ± 0.2 m/s
277.16 K, 141.08 kPa
  speed of sound: 142.2 ± 0.2 m/s
277.16 K, 161.07 kPa
  speed of sound: 141.73 ± 0.2 m/s
277.16 K, 180.84 kPa
  speed of sound: 141.26 ± 0.19 m/s
277.16 K, 198.8 kPa
  speed of sound: 140.83 ± 0.19 m/s
303.14 K, 10.51 kPa
  speed of sound: 151.5 ± 0.2 m/s
303.14 K, 20.76 kPa
  speed of sound: 151.31 ± 0.2 m/s
303.14 K, 40.75 kPa
  speed of sound: 150.97 ± 0.2 m/s
303.14 K, 60.79 kPa
  speed of sound: 150.62 ± 0.2 m/s
303.14 K, 80.27 kPa
  speed of sound: 150.28 ± 0.2 m/s
303.14 K, 100.78 kPa
  speed of sound: 149.93 ± 0.2 m/s
303.14 K, 120.91 kPa
  speed of sound: 149.57 ± 0.2 m/s
303.14 K, 140.84 kPa
  speed of sound: 149.22 ± 0.2 m/s
303.14 K, 160.84 kPa
  speed of sound: 148.87 ± 0.2 m/s
303.14 K, 180.99 kPa
  speed of sound: 148.5 ± 0.2 m/s
303.14 K, 200.32 kPa
  speed of sound: 148.16 ± 0.2 m/s
303.14 K, 300.92 kPa
  speed of sound: 146.32 ± 0.2 m/s
303.14 K, 398.68 kPa
  speed of sound: 144.47 ± 0.2 m/s
303.14 K, 465.23 kPa
  speed of sound: 143.19 ± 0.2 m/s
313.15 K, 10.5 kPa
  speed of sound: 153.84 ± 0.2 m/s
313.15 K, 20.68 kPa
  speed of sound: 153.68 ± 0.2 m/s
313.15 K, 40.59 kPa
  speed of sound: 153.37 ± 0.2 m/s
313.15 K, 60.28 kPa
  speed of sound: 153.06 ± 0.2 m/s
313.15 K, 80.59 kPa
  speed of sound: 152.74 ± 0.2 m/s
313.15 K, 100.57 kPa
  speed of sound: 152.43 ± 0.2 m/s
313.15 K, 120.77 kPa
  speed of sound: 152.11 ± 0.2 m/s
313.15 K, 140.78 kPa
  speed of sound: 151.79 ± 0.2 m/s
313.15 K, 160.71 kPa
  speed of sound: 151.47 ± 0.2 m/s
313.15 K, 180.78 kPa
  speed of sound: 151.14 ± 0.2 m/s
313.15 K, 200.47 kPa
  speed of sound: 150.82 ± 0.2 m/s
313.15 K, 300.67 kPa
  speed of sound: 149.18 ± 0.2 m/s
313.15 K, 400.7 kPa
  speed of sound: 147.49 ± 0.2 m/s
313.15 K, 480.34 kPa
  speed of sound: 146.12 ± 0.2 m/s
323.14 K, 10.7 kPa
  speed of sound: 156.16 ± 0.21 m/s
323.14 K, 20.42 kPa
  speed of sound: 156.02 ± 0.21 m/s
323.14 K, 40.64 kPa
  speed of sound: 155.73 ± 0.21 m/s
323.14 K, 60.8 kPa
  speed of sound: 155.44 ± 0.21 m/s
323.14 K, 80.84 kPa
  speed of sound: 155.16 ± 0.21 m/s
323.14 K, 100.74 kPa
  speed of sound: 154.87 ± 0.21 m/s
323.14 K, 120.86 kPa
  speed of sound: 154.58 ± 0.21 m/s
323.14 K, 140.92 kPa
  speed of sound: 154.29 ± 0.2 m/s
323.14 K, 160.95 kPa
  speed of sound: 154 ± 0.2 m/s
323.14 K, 180.33 kPa
  speed of sound: 153.71 ± 0.2 m/s
323.14 K, 200.71 kPa
  speed of sound: 153.41 ± 0.2 m/s
323.14 K, 300.75 kPa
  speed of sound: 151.93 ± 0.2 m/s
323.14 K, 400.83 kPa
  speed of sound: 150.41 ± 0.2 m/s
323.14 K, 501.38 kPa
  speed of sound: 148.85 ± 0.2 m/s
343.13 K, 40.76 kPa
  speed of sound: 160.33 ± 0.21 m/s
343.13 K, 60.62 kPa
  speed of sound: 160.09 ± 0.21 m/s
343.13 K, 80.21 kPa
  speed of sound: 159.86 ± 0.21 m/s
343.13 K, 100.97 kPa
  speed of sound: 159.61 ± 0.21 m/s
343.13 K, 120.73 kPa
  speed of sound: 159.37 ± 0.21 m/s
343.13 K, 140.89 kPa
  speed of sound: 159.13 ± 0.21 m/s
343.13 K, 160.51 kPa
  speed of sound: 158.89 ± 0.21 m/s
343.13 K, 180.9 kPa
  speed of sound: 158.65 ± 0.21 m/s
343.13 K, 197.5 kPa
  speed of sound: 158.44 ± 0.21 m/s
343.13 K, 300.29 kPa
  speed of sound: 157.19 ± 0.21 m/s
343.13 K, 400.48 kPa
  speed of sound: 155.94 ± 0.21 m/s
343.13 K, 500.26 kPa
  speed of sound: 154.68 ± 0.21 m/s
343.13 K, 600.3 kPa
  speed of sound: 153.41 ± 0.2 m/s
343.14 K, 20.77 kPa
  speed of sound: 160.58 ± 0.21 m/s
343.14 K, 40.77 kPa
  speed of sound: 160.34 ± 0.21 m/s
343.14 K, 59.94 kPa
  speed of sound: 160.11 ± 0.21 m/s
343.14 K, 80.48 kPa
  speed of sound: 159.86 ± 0.21 m/s
343.14 K, 100.55 kPa
  speed of sound: 159.62 ± 0.21 m/s
343.14 K, 120.9 kPa
  speed of sound: 159.38 ± 0.21 m/s
343.14 K, 140.63 kPa
  speed of sound: 159.14 ± 0.21 m/s
343.14 K, 160.64 kPa
  speed of sound: 158.9 ± 0.21 m/s
343.14 K, 180.84 kPa
  speed of sound: 158.65 ± 0.21 m/s
343.14 K, 200.46 kPa
  speed of sound: 158.41 ± 0.21 m/s
343.14 K, 300.55 kPa
  speed of sound: 157.19 ± 0.21 m/s
343.14 K, 399.77 kPa
  speed of sound: 155.96 ± 0.21 m/s
343.14 K, 501.32 kPa
  speed of sound: 154.68 ± 0.21 m/s
